Data: ChEMBL document CHEMBL1649107, “Sulfonate-containing thiiranes as selective gelatinase inhibitors” (ACS Med Chem Lett, 2011)
≈ marks a conversion by molar mass, not a printed value. Calls of active or inactive are those of the source. The rule behind the calls is not given here.

Target: 72 kDa type IV collagenase (Homo sapiens, UniProt P08253)
Experiment: not given
Conditions: not given

Chain of 72 kDa type IV collagenase (P08253 whole entry): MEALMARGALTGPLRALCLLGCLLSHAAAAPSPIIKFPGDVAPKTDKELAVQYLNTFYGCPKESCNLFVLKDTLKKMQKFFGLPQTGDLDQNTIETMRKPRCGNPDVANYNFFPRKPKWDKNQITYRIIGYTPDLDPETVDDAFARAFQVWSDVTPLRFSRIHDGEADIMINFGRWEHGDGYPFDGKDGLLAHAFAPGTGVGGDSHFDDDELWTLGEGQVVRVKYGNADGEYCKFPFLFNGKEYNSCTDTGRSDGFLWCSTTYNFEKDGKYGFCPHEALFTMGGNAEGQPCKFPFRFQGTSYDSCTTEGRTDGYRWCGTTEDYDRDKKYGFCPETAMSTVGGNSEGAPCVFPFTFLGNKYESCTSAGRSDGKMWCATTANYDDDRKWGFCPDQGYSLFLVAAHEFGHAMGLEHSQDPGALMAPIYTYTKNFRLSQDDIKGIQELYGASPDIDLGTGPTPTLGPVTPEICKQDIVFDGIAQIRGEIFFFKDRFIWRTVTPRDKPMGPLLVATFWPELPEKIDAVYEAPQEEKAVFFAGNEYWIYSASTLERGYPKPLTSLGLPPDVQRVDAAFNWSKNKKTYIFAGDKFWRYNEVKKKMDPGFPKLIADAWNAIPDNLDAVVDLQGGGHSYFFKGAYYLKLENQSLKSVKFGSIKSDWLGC

Going from `CC(C)CS(=O)(=O)Oc1ccc(Oc2ccc(S(=O)(=O)CC3CS3)cc2)cc1` (configuration not stated) to `CC(C)CS(=O)(=O)Oc1ccc(S(=O)(=O)CC2CS2)cc1` (configuration not stated), the Ki rises from 0.061 µM to 0.24 µM (3.9-fold). The first binds more tightly here.

First: CCS(=O)(=O)Oc1ccc(S(=O)(=O)CC2CS2)cc1 (configuration not stated)
Second: CCCS(=O)(=O)Oc1ccc(S(=O)(=O)CC2CS2)cc1 (configuration not stated)
The Ki of the first is 3.1-fold lower: 0.09 µM for the first, 0.28 µM for the second. The first binds more tightly here.

Target: T1, Stromelysin-1 (Homo sapiens, UniProt P08254)
T1 sequence (P08254 100-477 limits assumed): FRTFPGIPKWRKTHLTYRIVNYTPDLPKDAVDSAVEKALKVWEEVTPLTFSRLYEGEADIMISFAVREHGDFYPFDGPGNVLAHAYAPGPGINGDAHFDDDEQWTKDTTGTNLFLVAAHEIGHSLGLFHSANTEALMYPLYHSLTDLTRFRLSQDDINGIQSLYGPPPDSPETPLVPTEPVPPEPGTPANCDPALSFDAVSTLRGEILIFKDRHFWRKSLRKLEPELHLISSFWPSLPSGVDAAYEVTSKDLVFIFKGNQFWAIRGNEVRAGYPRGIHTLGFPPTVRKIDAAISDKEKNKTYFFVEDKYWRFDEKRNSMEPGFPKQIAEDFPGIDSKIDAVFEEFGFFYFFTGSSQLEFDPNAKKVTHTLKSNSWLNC
Experiment: Inhibition of human recombinant MMP3 catalytic domain at 200 uM by substrate hydrolysis based fluorescence spectrophotometry
Conditions: not given

First: CC(C)CS(=O)(=O)Oc1ccc(S(=O)(=O)CC2CS2)cc1 (configuration not stated)
Second: CCS(=O)(=O)Oc1ccc(S(=O)(=O)CC2CS2)cc1 (configuration not stated)
The inhibition of the first is lower: 25% for the first, 62% for the second.

`CCCS(=O)(=O)Oc1ccc(S(=O)(=O)CC2CS2)cc1` (configuration not stated) showed an inhibition of 58%.

Tested on: not listed separately
Experiment: Half life in rat liver microsomes at 200 uM by HPLC
Format: ADME, Microsome
Conditions: not given

`CC(C)CS(=O)(=O)Oc1ccc(S(=O)(=O)CC2CS2)cc1` (configuration not stated) and `CCS(=O)(=O)Oc1ccc(S(=O)(=O)CC2CS2)cc1` (configuration not stated) are within 1.5-fold of each other in half-life at 200 µM: 36.1 min for the first, 31.8 min for the second.

`CCCS(=O)(=O)Oc1ccc(S(=O)(=O)CC2CS2)cc1` (configuration not stated) showed a half-life at 200 µM of 29.8 min.

Tested on: not listed separately
Experiment: physchem
Conditions: aqueous
Description: Aqueous solubility of the compound

Going from `CC(C)CS(=O)(=O)Oc1ccc(Oc2ccc(S(=O)(=O)CC3CS3)cc2)cc1` (configuration not stated) to `CC(C)CS(=O)(=O)Oc1ccc(S(=O)(=O)CC2CS2)cc1` (configuration not stated), the solubility rises from 1.1 µg/mL (≈ 2.49 µM) to 230 µg/mL (≈ 656 µM) (210-fold).

`CCS(=O)(=O)Oc1ccc(S(=O)(=O)CC2CS2)cc1` (configuration not stated) and `CCCS(=O)(=O)Oc1ccc(S(=O)(=O)CC2CS2)cc1` (configuration not stated) are within 1.5-fold of each other in solubility: 114 µg/mL (≈ 354 µM) for the first, 96 µg/mL (≈ 285 µM) for the second.

Target: T2, Interstitial collagenase (Homo sapiens) (UniProt P03956)
T2 sequence (whole entry): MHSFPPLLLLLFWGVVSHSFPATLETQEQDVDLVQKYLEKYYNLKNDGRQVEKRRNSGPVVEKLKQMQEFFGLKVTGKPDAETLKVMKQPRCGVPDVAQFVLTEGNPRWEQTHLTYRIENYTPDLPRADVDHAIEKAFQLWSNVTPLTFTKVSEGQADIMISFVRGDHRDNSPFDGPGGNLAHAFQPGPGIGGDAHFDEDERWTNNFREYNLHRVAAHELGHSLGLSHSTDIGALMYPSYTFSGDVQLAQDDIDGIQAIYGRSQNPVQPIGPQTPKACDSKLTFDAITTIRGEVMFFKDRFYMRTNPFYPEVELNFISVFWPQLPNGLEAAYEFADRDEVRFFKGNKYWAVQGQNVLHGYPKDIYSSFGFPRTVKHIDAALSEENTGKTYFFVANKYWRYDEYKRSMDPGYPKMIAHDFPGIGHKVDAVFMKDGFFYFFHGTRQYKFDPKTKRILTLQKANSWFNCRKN
Experiment: Inhibition of human recombinant MMP1 catalytic domain at 30 uM by substrate hydrolysis based fluorescence spectrophotometry
Conditions: not given

In the case of `CC(C)CS(=O)(=O)Oc1ccc(Oc2ccc(S(=O)(=O)CC3CS3)cc2)cc1` (configuration not stated), the inhibition is reported as “inactive”.

Target: T3, Matrix metalloproteinase-14 (Homo sapiens, UniProt P50281)
Experiment: Inhibition of human recombinant MMP14 catalytic domain assessed as dissociation rate constant by substrate hydrolysis based fluorescence spectrophotometry
Conditions: not given

First: CC(C)CS(=O)(=O)Oc1ccc(Oc2ccc(S(=O)(=O)CC3CS3)cc2)cc1 (configuration not stated)
Second: CC(C)CS(=O)(=O)Oc1ccc(S(=O)(=O)CC2CS2)cc1 (configuration not stated)
The Activity of the first is higher: 2 ×10⁻³ /s for the first, 1.7 ×10⁻³ /s for the second.

Going from `CCS(=O)(=O)Oc1ccc(S(=O)(=O)CC2CS2)cc1` (configuration not stated) to `CCCS(=O)(=O)Oc1ccc(S(=O)(=O)CC2CS2)cc1` (configuration not stated), the Activity falls from 1.6 ×10⁻³ /s to 1.5 ×10⁻³ /s.

Target: T3, Matrix metalloproteinase-14
Experiment: Inhibition of human recombinant MMP14 catalytic domain by substrate hydrolysis based fluorescence spectrophotometry
Conditions: not given

First: CC(C)CS(=O)(=O)Oc1ccc(Oc2ccc(S(=O)(=O)CC3CS3)cc2)cc1 (configuration not stated)
Second: CC(C)CS(=O)(=O)Oc1ccc(S(=O)(=O)CC2CS2)cc1 (configuration not stated)
The Ki of the first is 25-fold lower: 0.79 µM for the first, 20 µM for the second. The first binds more tightly here.

Compared with `CCS(=O)(=O)Oc1ccc(S(=O)(=O)CC2CS2)cc1` (configuration not stated), `CCCS(=O)(=O)Oc1ccc(S(=O)(=O)CC2CS2)cc1` (configuration not stated) is 2.9-fold higher in Ki: 11 µM for the first, 32 µM for the second. The first binds more tightly here.

Target: T4, Matrilysin (Homo sapiens) (UniProt P09237)
T4 sequence (whole entry): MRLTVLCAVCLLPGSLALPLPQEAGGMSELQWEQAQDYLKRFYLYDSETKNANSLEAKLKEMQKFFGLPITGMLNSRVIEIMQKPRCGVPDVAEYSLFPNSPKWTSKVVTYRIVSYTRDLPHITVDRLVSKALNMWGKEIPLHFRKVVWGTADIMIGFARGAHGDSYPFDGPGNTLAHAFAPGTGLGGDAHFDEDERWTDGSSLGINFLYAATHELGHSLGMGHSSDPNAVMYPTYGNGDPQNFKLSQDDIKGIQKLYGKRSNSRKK
Experiment: Inhibition of human recombinant MMP7 catalytic domain at 30 uM by substrate hydrolysis based fluorescence spectrophotometry
Conditions: not given

With `CC(C)CS(=O)(=O)Oc1ccc(Oc2ccc(S(=O)(=O)CC3CS3)cc2)cc1` (configuration not stated) the inhibition was “inactive”.

Target: T4, Matrilysin (Homo sapiens)
Experiment: Inhibition of human recombinant MMP7 catalytic domain assessed as dissociation rate constant by substrate hydrolysis based fluorescence spectrophotometry
Conditions: not given

Compared with `CC(C)CS(=O)(=O)Oc1ccc(S(=O)(=O)CC2CS2)cc1` (configuration not stated), `CCS(=O)(=O)Oc1ccc(S(=O)(=O)CC2CS2)cc1` (configuration not stated) is lower in Activity: 1.4 ×10⁻³ /s for the first, 0.6 ×10⁻³ /s for the second.

`CCCS(=O)(=O)Oc1ccc(S(=O)(=O)CC2CS2)cc1` (configuration not stated) showed an Activity of 0.8 ×10⁻³ /s.

Tested on: not listed separately
Experiment: Intrinsic clearance in rat liver microsomes at 100 uM by HPLC
Format: ADME, Microsome
Conditions: not given

Work on `CC(C)CS(=O)(=O)Oc1ccc(Oc2ccc(S(=O)(=O)CC3CS3)cc2)cc1` (configuration not stated) yielded a CLint scaled at 100 µM of 86.5 mL/min/kg.

Target: T2, Interstitial collagenase (Homo sapiens)
Experiment: Inhibition of human recombinant MMP1 catalytic domain at 200 uM by substrate hydrolysis based fluorescence spectrophotometry
Conditions: not given

In the case of `CC(C)CS(=O)(=O)Oc1ccc(S(=O)(=O)CC2CS2)cc1` (configuration not stated), the inhibition is reported as “inactive”.

Going from `CCS(=O)(=O)Oc1ccc(S(=O)(=O)CC2CS2)cc1` (configuration not stated) to `CCCS(=O)(=O)Oc1ccc(S(=O)(=O)CC2CS2)cc1` (configuration not stated), the inhibition rises from 7% to 30%.

Target: T5, Matrix metalloproteinase-9 (Homo sapiens, UniProt P14780)
T5 sequence (P14780 whole entry): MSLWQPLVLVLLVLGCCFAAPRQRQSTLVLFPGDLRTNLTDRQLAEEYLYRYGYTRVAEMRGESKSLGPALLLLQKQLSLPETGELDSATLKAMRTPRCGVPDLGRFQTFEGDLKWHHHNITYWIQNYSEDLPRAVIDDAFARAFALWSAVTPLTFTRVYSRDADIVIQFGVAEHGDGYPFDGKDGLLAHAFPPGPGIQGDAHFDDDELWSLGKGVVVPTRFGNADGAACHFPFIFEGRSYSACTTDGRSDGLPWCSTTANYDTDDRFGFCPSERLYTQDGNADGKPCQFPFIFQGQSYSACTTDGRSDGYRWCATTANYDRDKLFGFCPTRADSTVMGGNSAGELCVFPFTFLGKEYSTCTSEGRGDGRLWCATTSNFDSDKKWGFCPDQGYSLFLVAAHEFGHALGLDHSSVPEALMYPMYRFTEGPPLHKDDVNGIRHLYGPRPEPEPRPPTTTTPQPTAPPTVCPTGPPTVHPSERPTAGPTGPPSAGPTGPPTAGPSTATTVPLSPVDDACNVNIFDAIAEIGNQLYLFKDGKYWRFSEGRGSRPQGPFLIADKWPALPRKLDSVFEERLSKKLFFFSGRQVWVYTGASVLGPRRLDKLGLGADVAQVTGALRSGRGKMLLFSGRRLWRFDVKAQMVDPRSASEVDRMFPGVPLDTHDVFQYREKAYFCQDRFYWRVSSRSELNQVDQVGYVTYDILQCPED
Experiment: not given
Conditions: not given

First: CC(C)CS(=O)(=O)Oc1ccc(Oc2ccc(S(=O)(=O)CC3CS3)cc2)cc1 (configuration not stated)
Second: CC(C)CS(=O)(=O)Oc1ccc(S(=O)(=O)CC2CS2)cc1 (configuration not stated)
The Ki of the first is 9.2-fold lower: 0.38 µM for the first, 3.5 µM for the second. The first binds more tightly here.

First: CCS(=O)(=O)Oc1ccc(S(=O)(=O)CC2CS2)cc1 (configuration not stated)
Second: CCCS(=O)(=O)Oc1ccc(S(=O)(=O)CC2CS2)cc1 (configuration not stated)
The Ki of the first is 1.9-fold higher: 12 µM for the first, 6.2 µM for the second.

Target: T5, Matrix metalloproteinase-9
Experiment: Inhibition of human recombinant MMP9 catalytic domain assessed as dissociation rate constant by substrate hydrolysis based fluorescence spectrophotometry
Conditions: not given

First: CC(C)CS(=O)(=O)Oc1ccc(Oc2ccc(S(=O)(=O)CC3CS3)cc2)cc1 (configuration not stated)
Second: CC(C)CS(=O)(=O)Oc1ccc(S(=O)(=O)CC2CS2)cc1 (configuration not stated)
The Activity of the first is higher: 2 ×10⁻³ /s for the first, 1.9 ×10⁻³ /s for the second.

Compared with `CCS(=O)(=O)Oc1ccc(S(=O)(=O)CC2CS2)cc1` (configuration not stated), `CCCS(=O)(=O)Oc1ccc(S(=O)(=O)CC2CS2)cc1` (configuration not stated) is lower in Activity: 1.8 ×10⁻³ /s for the first, 0.9 ×10⁻³ /s for the second.

Tested on: not listed separately
Experiment: Intrinsic clearance in rat liver microsomes at 200 uM by HPLC
Format: ADME, Microsome
Conditions: not given

`CC(C)CS(=O)(=O)Oc1ccc(S(=O)(=O)CC2CS2)cc1` (configuration not stated) and `CCS(=O)(=O)Oc1ccc(S(=O)(=O)CC2CS2)cc1` (configuration not stated) are within 1.5-fold of each other in CLint scaled at 200 µM: 38.8 mL/min/kg for the first, 44.2 mL/min/kg for the second.

`CCCS(=O)(=O)Oc1ccc(S(=O)(=O)CC2CS2)cc1` (configuration not stated) gave a CLint scaled at 200 µM of 47.2 mL/min/kg.

Target: T1, Stromelysin-1
Experiment: Inhibition of human recombinant MMP3 catalytic domain at 20 uM by substrate hydrolysis based fluorescence spectrophotometry
Conditions: not given

`CC(C)CS(=O)(=O)Oc1ccc(Oc2ccc(S(=O)(=O)CC3CS3)cc2)cc1` (configuration not stated) gave an inhibition of 5%.

Target: T6, Matrilysin (Homo sapiens, UniProt P09237)
T6 sequence (P09237 whole entry): T4 sequence (whole entry)
Experiment: not given
Conditions: not given

First: CC(C)CS(=O)(=O)Oc1ccc(S(=O)(=O)CC2CS2)cc1 (configuration not stated)
Second: CCS(=O)(=O)Oc1ccc(S(=O)(=O)CC2CS2)cc1 (configuration not stated)
The Ki of the first is 4.6-fold higher: 120 µM for the first, 26 µM for the second. The second binds more tightly here.

Compound `CCCS(=O)(=O)Oc1ccc(S(=O)(=O)CC2CS2)cc1` (configuration not stated) has a Ki of 35 µM.

Tested on: not listed separately
Experiment: Half life in rat liver microsomes at 100 uM by HPLC
Format: ADME, Microsome
Conditions: not given

Compound `CC(C)CS(=O)(=O)Oc1ccc(Oc2ccc(S(=O)(=O)CC3CS3)cc2)cc1` (configuration not stated) has a half-life at 100 µM of 16.2 min.
